Source: US12077503B2, “Substituted cyclic amides and their use as herbicides” (FMC CORPORATION, priority 2015, dated 2024)

What was measured:
Type in all cases: in vivo
[1] = tested on: Kochia (Kochia scoparia); assay: Test A postemergence
Method in brief: (§1)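 Treatment is preemergence as a directed soil spray after planting, or postemergence at the one- to two-leaf stage, with test chemical in a non-phytotoxic solvent mixture plus surfactant. Plants stay in the greenhouse about 10 d before visual injury scoring on a 0 to 100 scale versus untreated controls.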

[2] = tested on: corn (Zea mays); assay: Test A postemergence
Method in brief: as §1

[3] = tested on: Galium (catchweed bedstraw, Galium aparine); assay: Test A postemergence
Method in brief: as §1

[4] = tested on: wheat (Triticum aestivum); assay: Test A postemergence; conditions: postemergence
Method in brief: as §1

[5] = tested on: ryegrass, Italian (Italian ryegrass, Lolium multiflorum); assay: Test A postemergence; conditions: postemergence
Method in brief: as §1

[6] = tested on: barnyardgrass (Echinochloa crus-galli); assay: Test A postemergence
Method in brief: as §1

[7] = tested on: ragweed (common ragweed, Ambrosia elatior); assay: Test A postemergence; conditions: postemergence
Method in brief: as §1

[8] = tested on: blackgrass (Alopecurus myosuroides); assay: Test A postemergence
Method in brief: as §1

[9] = tested on: giant foxtail (Setaria faberii); assay: Test A postemergence
Method in brief: as §1

[10] = tested on: pigweed (Amaranthus retroflexus); assay: Test A postemergence; conditions: postemergence
Method in brief: as §1

[11] = tested on: Kochia (Kochia scoparia); assay: Test A preemergence
Method in brief: as §1

[12] = tested on: ryegrass, Italian (Italian ryegrass, Lolium multiflorum); assay: Test A preemergence
Method in brief: as §1

[13] = tested on: barnyardgrass (Echinochloa crus-galli); assay: Test A preemergence
Method in brief: as §1

[14] = tested on: ragweed (common ragweed, Ambrosia elatior); assay: Test A preemergence
Method in brief: as §1

[15] = tested on: giant foxtail (Setaria faberii); assay: Test A preemergence
Method in brief: as §1

[16] = tested on: pigweed (Amaranthus retroflexus); assay: Test A preemergence
[17] = tested on: rice (Oryra sativa); assay: Test B flooded paddy test; conditions: 250 g ai/ha, Flood, 0 to 100 scale where 0 is no effect and 100 is complete control
Method in brief: (§2)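 Percent control, visually estimated after 13–15 d in the greenhouse on a 0–100 basis, compares treated pots with untreated ones; compound was put into paddy water 3 cm above the soil when plants had two leaves.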

[18] = tested on: ducksalad (Heteranthera limosa); assay: Test B flooded paddy test; conditions: 250 g ai/ha, Flood, 0 to 100 scale where 0 is no effect and 100 is complete control
Method in brief: as §2

[19] = tested on: barnyardgrass (Echinochloa crus-galli); assay: Test B flooded paddy test; conditions: 250 g ai/ha, Flood, 0 to 100 scale where 0 is no effect and 100 is complete control
Method in brief: as §2

[20] = tested on: sedge, umbrella (small-flower umbrella sedge, Cyperus difformis); assay: Test B flooded paddy test; conditions: 250 g ai/ha, Flood, 0 to 100 scale where 0 is no effect and 100 is complete control
Method in brief: as §2

[21] = 125 g ai/ha, postemergence, visual injury rating on 0 to 100 scale (0 no effect, 100 complete control), approx. 10 d
[22] = 500 g ai/ha, postemergence, 0 to 100 scale, 0 no effect, 100 complete control
[23] = 125 g ai/ha, visual injury rating on 0 to 100 scale (0 no effect, 100 complete control), approx. 10 d
[24] = 500 g ai/ha, 0 to 100 scale, 0 no effect, 100 complete control
[25] = Postemergence, 125 g ai/ha, visual injury, 0 to 100 scale (0 no effect, 100 complete control), approx. 10 d
[26] = 125 g ai/ha, preemergence, 0 to 100 scale (0 no effect, 100 complete control)
[27] = Preemergence, 500 g ai/ha, 0 is no effect, 100 is complete control

Molecule CN1C[C@H](c2cc(F)cc(C(F)(F)F)c2)[C@@H](C(=O)Nc2cccnc2F)C1=O [Compound 1176] has a pest or weed control at 125 g/ha ([1]; Bassia scoparia, post-emergence, 240 h, 125 g ai/ha, postemergence, visual injury vs untreated controls after approx. 10 d, 0 = no effect, 100 = complete control, read-out: Kochia plant response rating (0 to 100 scale)) of 40%, a pest or weed control at 31 g/ha ([1]; Bassia scoparia, post-emergence, 240 h, Postemergence, 31 g ai/ha, visual injury after approx. 10 d, 0 to 100 scale, 0 no effect, 100 complete control, read-out: Plant response rating, Kochia) of 0% and a plant injury at 125 g/ha ([2]; Zea mays, post-emergence, 240 h, 125 g ai/ha, postemergence, visual injury vs untreated controls after approx. 10 d, 0 = no effect, 100 = complete control, read-out: Corn plant response rating (0 to 100 scale)) of 90%. The Corn plant response rating (crop injury, 0 = no effect, 100 = complete kill) at 31 g/ha ([2]; Zea mays, post-emergence, 240 h, Postemergence, 31 g ai/ha, visual injury after approx. 10 d, 0 to 100 scale, 0 no effect, 100 complete control) was 50%, the pest or weed control at 125 g/ha ([3]; Galium, post-emergence, 240 h, 125 g ai/ha, postemergence, visual injury vs untreated controls after approx. 10 d, 0 = no effect, 100 = complete control, read-out: Galium plant response rating (0 to 100 scale)) was 50% and the pest or weed control at 31 g/ha ([3]; Galium, post-emergence, 240 h, Postemergence, 31 g ai/ha, visual injury after approx. 10 d, 0 to 100 scale, 0 no effect, 100 complete control, read-out: Plant response rating, Galium) was 30%. It also gave a plant injury at 125 g/ha ([4]; Triticum aestivum, post-emergence, 240 h, 125 g ai/ha, visual injury vs untreated controls after approx. 10 d, 0 = no effect, 100 = complete control, read-out: Wheat plant response rating (0 to 100 scale)) of 90%, a pest or weed control at 125 g/ha ([5]; Lolium multiflorum, post-emergence, 240 h, 125 g ai/ha, visual injury vs untreated controls after approx. 10 d, 0 = no effect, 100 = complete control, read-out: Ryegrass, Italian plant response rating (0 to 100 scale)) of 30% and a pest or weed control at 125 g/ha ([6]; Echinochloa crus-galli, post-emergence, 240 h, 125 g ai/ha, postemergence, visual injury vs untreated controls after approx. 10 d, 0 = no effect, 100 = complete control, read-out: Barnyardgrass plant response rating (0 to 100 scale)) of 90%. The pest or weed control at 31 g/ha ([6]; Echinochloa crus-galli, post-emergence, 240 h, Postemergence, 31 g ai/ha, visual injury after approx. 10 d, 0 to 100 scale, 0 no effect, 100 complete control, read-out: Plant response rating, Barnyardgrass) was 80%, the pest or weed control at 125 g/ha ([7]; Ambrosia artemisiifolia, post-emergence, 240 h, 125 g ai/ha, visual injury vs untreated controls after approx. 10 d, 0 = no effect, 100 = complete control, read-out: Ragweed plant response rating (0 to 100 scale)) was 30% and the pest or weed control at 125 g/ha ([8]; Alopecurus myosuroides, post-emergence, 240 h, 125 g ai/ha, postemergence, visual injury vs untreated controls after approx. 10 d, 0 = no effect, 100 = complete control, read-out: Blackgrass plant response rating (0 to 100 scale)) was 70%. The pest or weed control at 31 g/ha ([8]; Alopecurus myosuroides, post-emergence, 240 h, Postemergence, 31 g ai/ha, visual injury after approx. 10 d, 0 to 100 scale, 0 no effect, 100 complete control, read-out: Plant response rating, Blackgrass) was 50%, the pest or weed control at 125 g/ha ([9]; Setaria faberi, post-emergence, 240 h, 125 g ai/ha, postemergence, visual injury vs untreated controls after approx. 10 d, 0 = no effect, 100 = complete control, read-out: Foxtail, Giant plant response rating (0 to 100 scale)) was 80% and the pest or weed control at 31 g/ha ([9]; Setaria faberi, post-emergence, 240 h, Postemergence, 31 g ai/ha, visual injury after approx. 10 d, 0 to 100 scale, 0 no effect, 100 complete control, read-out: Plant response rating, Foxtail, Giant) was 80%. For the same molecule, the pest or weed control at 125 g/ha ([10]; Amaranthus retroflexus, post-emergence, 240 h, 125 g ai/ha, visual injury vs untreated controls after approx. 10 d, 0 = no effect, 100 = complete control, read-out: Pigweed plant response rating (0 to 100 scale)) was 0%, the pest or weed control at 31 g/ha ([11]; Bassia scoparia, pre-emergence, 240 h, 31 g ai/ha, Preemergence, 0 to 100 scale where 0 is no effect and 100 is complete control, read-out: Kochia plant response rating) was 0% and the pest or weed control at 125 g/ha ([11]; Bassia scoparia, pre-emergence, 240 h, 125 g ai/ha, preemergence, 0 to 100 scale where 0 is no effect and 100 is complete control, approx. 10 d, read-out: Kochia plant response rating) was 40%. The pest or weed control at 31 g/ha ([12]; Lolium multiflorum, pre-emergence, 240 h, 31 g ai/ha, Preemergence, 0 to 100 scale where 0 is no effect and 100 is complete control, read-out: Ryegrass, Italian plant response rating) was 40%, the pest or weed control at 125 g/ha ([12]; Lolium multiflorum, pre-emergence, 240 h, 125 g ai/ha, preemergence, 0 to 100 scale where 0 is no effect and 100 is complete control, approx. 10 d, read-out: Ryegrass, Italian plant response rating) was 50% and the pest or weed control at 31 g/ha ([13]; Echinochloa crus-galli, pre-emergence, 240 h, 31 g ai/ha, Preemergence, 0 to 100 scale where 0 is no effect and 100 is complete control, read-out: Barnyardgrass plant response rating) was 90%. It also gave a pest or weed control at 125 g/ha ([13]; Echinochloa crus-galli, pre-emergence, 240 h, 125 g ai/ha, preemergence, 0 to 100 scale where 0 is no effect and 100 is complete control, approx. 10 d, read-out: Barnyardgrass plant response rating) of 90%, a pest or weed control at 31 g/ha ([14]; Ambrosia artemisiifolia, pre-emergence, 240 h, 31 g ai/ha, Preemergence, 0 to 100 scale where 0 is no effect and 100 is complete control, read-out: Ragweed plant response rating) of 0% and a pest or weed control at 125 g/ha ([14]; Ambrosia artemisiifolia, pre-emergence, 240 h, 125 g ai/ha, preemergence, 0 to 100 scale where 0 is no effect and 100 is complete control, approx. 10 d, read-out: Ragweed plant response rating) of 0%. It also gave a pest or weed control at 31 g/ha ([15]; Setaria faberi, pre-emergence, 240 h, 31 g ai/ha, Preemergence, 0 to 100 scale where 0 is no effect and 100 is complete control, read-out: Foxtail, Giant plant response rating) of 90%, a pest or weed control at 125 g/ha ([15]; Setaria faberi, pre-emergence, 240 h, 125 g ai/ha, preemergence, 0 to 100 scale where 0 is no effect and 100 is complete control, approx. 10 d, read-out: Foxtail, Giant plant response rating) of 90% and a pest or weed control at 31 g/ha ([16]; Amaranthus retroflexus, pre-emergence, 240 h, 31 g ai/ha, Preemergence, 0 to 100 scale where 0 is no effect and 100 is complete control, read-out: Pigweed plant response rating) of 0%. It also gave a pest or weed control at 125 g/ha ([16]; Amaranthus retroflexus, pre-emergence, 240 h, 125 g ai/ha, preemergence, 0 to 100 scale where 0 is no effect and 100 is complete control, approx. 10 d, read-out: Pigweed plant response rating) of 40%, a pest or weed control at 250 g/ha ([17]; Oryza sativa, read-out: Rice plant response rating) of 0% and a pest or weed control at 250 g/ha ([18]; Heteranthera limosa, read-out: Ducksalad plant response rating) of 95%. The pest or weed control at 250 g/ha ([19]; Echinochloa crus-galli, read-out: Barnyardgrass plant response rating) was 95% and the pest or weed control at 250 g/ha ([20]; Cyperus difformis, read-out: Sedge, Umbrella plant response rating) was 0%.

CN1CC(c2cccc(OC(F)(F)C(F)F)c2)C(C(=O)Nc2cccc(F)c2F)C1=O (centres unmarked) [Compound 392] was tested, and the “Kochia plant response rating” value [1, 21] was 50, the “Plant response rating, Kochia” value [1, 22] was 70 and the “Corn plant response rating” value [2, 21] was 70. The “Plant response rating, Corn” value [2, 22] was 80, the “Galium plant response rating” value [3, 21] was 70 and the “Plant response rating, Galium” value [3, 22] was 70. The “Wheat plant response rating” value [4, 23] was 20, the “Plant response rating, Wheat” value [4, 24] was 70 and the “Ryegrass, Italian plant response rating” value [5, 23] was 50. For the same molecule, the “Plant response rating, Ryegrass, Italian” value [5, 24] was 80, the “Plant response rating, Barnyardgrass” value [6, 22] was 90 and the “Plant response rating, Barnyardgrass” value [6, 25] was 80. For the same molecule, the “Ragweed plant response rating” value [7, 23] was 50, the “Plant response rating, Ragweed” value [7, 24] was 20 and the “Plant response rating, Blackgrass” value [8, 22] was 70. The “Plant response rating, Blackgrass” value [8, 25] was 70, the “Foxtail, Giant plant response rating” value [9, 21] was 90 and the “Plant response rating, Foxtail, Giant” value [9, 22] was 90. For the same molecule, the “Pigweed plant response rating” value [10, 23] was 60, the “Plant response rating, Pigweed” value [10, 24] was 70 and the “Plant response rating, Kochia” value [11, 26] was 50. For the same molecule, the “Kochia plant response rating (0 to 100 scale)” value [11, 27] was 70, the “Plant response rating, Ryegrass, Italian” value [12, 26] was 40 and the “Ryegrass, Italian plant response rating (0 to 100 scale)” value [12, 27] was 80. The “Plant response rating, Barnyardgrass” value [13, 26] was 90, the “Barnyardgrass plant response rating (0 to 100 scale)” value [13, 27] was 90 and the “Plant response rating, Ragweed” value [14, 26] was 70. The “Ragweed plant response rating (0 to 100 scale)” value [14, 27] was 60, the “Plant response rating, Foxtail, Giant” value [15, 26] was 90 and the “Foxtail, Giant plant response rating (0 to 100 scale)” value [15, 27] was 90. The “Plant response rating, Pigweed” value [16, 26] was 70, the “Pigweed plant response rating (0 to 100 scale)” value [16, 27] was 80 and the “Plant response rating, Rice” value ([17]; 13 to 15 d) was 20. For the same molecule, the “Plant response rating, Ducksalad” value ([18]; 13 to 15 d) was 90, the “Plant response rating, Barnyardgrass” value ([19]; 13 to 15 d) was 60 and the “Plant response rating, Sedge, Umbrella” value ([20]; 13 to 15 d) was 0.
